# Reference: patent publication EP0300397A2, “Hydroxy-, Alkoxy- and Benzyloxy substituted phospholipids, a process for their preparation and their use as medicaments” (HOECHST-ROUSSEL PHARMACEUTICALS INCORPORATED, priority 1987, dated 1989)
# pIC50: −log10 of the molar value. Counter-ions that a name gives are not always drawn.
# Target: T1, phospholipase A₂ isolated from rat perotoneum (Rattus norvegicus, UniProt P14423)
# T1 construct: Enzyme-containing exudate was aspirated through an abdominal incision; Separation of the enzyme from the exudate was accomplished by centrifugation; from tissue; host or cells: peritoneal exudate of casein-injected male Wistar rats
# T1 sequence (P14423 22-146): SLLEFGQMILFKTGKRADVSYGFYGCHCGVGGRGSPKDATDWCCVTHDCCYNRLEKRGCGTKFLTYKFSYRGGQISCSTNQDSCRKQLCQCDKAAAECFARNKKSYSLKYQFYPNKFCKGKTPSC
# Test: phospholipase A₂ inhibition, spectrophotometric assay with Thio Pc Substrate (modified Hendrickson et al. procedure)
# Assay type: biochemical
# Settings: for pIC50: concentration of inhibitor which reduces enzymatic activity by 50̸%, printed in the column % PLA₂ Inhibition; for inhibition at 100 µM: @ 1.0̸ x 10̸⁻⁴M, read-out: % PLA₂ Inhibition
# Procedure: The substrate employed in the modified assay, was 1,2-bis(decanoylthio)-1,2-­dideoxyglycerol-3-phosphocholine (hereinafter "Thio Pc Substrate"). The enzyme utilized in the procedure was phospholipase A₂ isolated from rat perotoneum as follows:
# Male Wistar rats weighing 200-300 g a piece were injected interperitoneally at a dosage of 50 ml/kg of body weight (20 g of casein as the sodium salt diluted to 500 ml in distilled water). After a period of 18-24 hours the animals were sacrificed. Thereafter, each animal was injected interperitoneally with 30 ml of an isotonic salt solution to which sodium heparin was added prior to use at a concentration of 5 units/ml. Enzyme-containing exudate was aspirated through an abdominal incision. Separation of the enzyme from the exudate was accomplished by centrifugation.
# Pursuant to the assay procedure, Thio Pc Substrate was apportioned into 1.25 mg aliquots. To each aliquot was added 4 ml of 160 mM tris hydrogen chloride buffer (pH 7.5) containing 2mM of calcium chloride and 2mM of sodium taurocholate. The resulting dispersions were vortexed at room temperature to clear solutions. Inhibition activity of the alkylphospholipids of this invention was determined utilizing spectrophotometric samples prepared by the addition of 5 µl of 4,4′-dithiopyridine and 395 ml of buffered Thio Pc substrate to a perincubated dispersion of 50 µl of alkylphospholipid (appropriately diluted in buffer) in 50 µl of enzyme (appropriately diluted in buffer). Absorbence at (0.5 full scale ) was recorded at a chart speed of 2 cm/min on a Gilford Model 250 Spectrophotometer.
# The percentage of phospholipase A₂ inhibition was calculated by means of the following formula: [formula] wherein "inhibitor slope" is the slope of the spectrophotometric curve obtained for a given alkylphospholipid-containing sample and 'control slope" is the slope of the spectrophotometric curve obtained for an otherwise identical sample lacking an inhibitor.
Compound,pIC50,inhibition at 100 µM [%]
"CCCCCCCCCCCCCCCCC(O)CCCOP(=O)([O-])OCC[N+](C)(C)C (centres unmarked) [4,9-Dihydroxy-N,N,N-trimethyl-3,5-dioxa-4-phosphopentacosan-1-aminium, 4-oxide, hydroxide, inner salt monohydrate]",4.02,–
"CCCCCCCCCCCCCCCC(O)CCCOP(=O)([O-])OCC[N+](C)(C)C (centres unmarked) [4,9-Dihydroxy-N,N,N-trimethyl-3,5-dioxa-4-phosphatetracosan-1-aminium, hydroxide, inner salt sesquihydrate]",–,45.6
"CCCCCCCCCCCCCCCC(CCCOP(=O)([O-])OCC[N+](C)(C)C)OCc1ccccc1 (centres unmarked) [4-Hydroxy-N,N,N-trimethyl-9-phenylmethoxy-3,5-dioxa-4-phosphatetracosan-1-aminium, 4-oxide, hydroxide, inner salt monohydrate]",–,41.8
"CCCCCCCCCCCCCCCCCC(CCCOP(=O)([O-])OCC[N+](C)(C)C)OCc1ccccc1 (centres unmarked) [4-Hydroxy-N,N,N-trimethyl-9-phenylmethoxy-3,5-dioxa-4-phosphahexacosan-1-aminium, 4-oxide, hydroxide, inner salt monohydrate]",4.08,–
"CCN(CC)CCCC(C)Nc1c2ccc(Cl)cc2nc2ccc(OC)cc12 (centres unmarked) [Quinacrine, reference compound]",4.51,–
